Source: article PMC4325971, “Sex-Differences in Renal Expression of Selected Transporters and Transcription Factors in Lean and Obese Zucker Spontaneously Hypertensive Fatty Rats” (Journal of Diabetes Research, 2015)

Columns and labels:
Assay in all cases: inhibition of [3H]cGMP uptake in OAT2-HEK293 cells
Assay type in all cases: cell-based
[1] = target: T1, human OAT2 (organic anion transporter 2) (Homo sapiens, UniProt Q9Y694)
T1 construct: gene SLC22A7; full-length human OAT2 stably transfected in HEK293 cells (PortaCellTec Biosciences)
T1 sequence (Q9Y694 1-548): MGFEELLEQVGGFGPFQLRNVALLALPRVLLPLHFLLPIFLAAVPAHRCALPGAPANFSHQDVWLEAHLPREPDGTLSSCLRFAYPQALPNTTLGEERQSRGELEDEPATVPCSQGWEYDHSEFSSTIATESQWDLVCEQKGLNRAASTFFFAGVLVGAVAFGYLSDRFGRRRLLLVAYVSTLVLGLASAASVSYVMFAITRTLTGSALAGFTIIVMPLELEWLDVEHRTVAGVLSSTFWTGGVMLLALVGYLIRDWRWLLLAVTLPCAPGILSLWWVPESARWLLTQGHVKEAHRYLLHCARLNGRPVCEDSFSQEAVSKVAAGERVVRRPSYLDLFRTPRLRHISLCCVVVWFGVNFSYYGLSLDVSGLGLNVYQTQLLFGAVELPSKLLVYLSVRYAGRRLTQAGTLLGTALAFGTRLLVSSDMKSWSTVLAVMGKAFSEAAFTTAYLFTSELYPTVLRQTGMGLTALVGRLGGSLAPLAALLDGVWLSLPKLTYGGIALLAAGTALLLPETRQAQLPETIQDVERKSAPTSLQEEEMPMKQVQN

[2] = target: T1, human OAT2 (organic anion transporter 2); settings: read-out: % inhibition at 500 μM
[3] = target: T1, human OAT2 (organic anion transporter 2); settings: 500 μM inhibitor, 10 μM cGMP, 5 min, 37°C, pH 7.4

| Compound | % inhibition at 500 μM [3] | also measured |
| --- | --- | --- |
| CCCCNc1cc(C(=O)O)cc(S(N)(=O)=O)c1Oc1ccccc1 [bumetanide] | – | IC50 [1]: 130 ± 21.8 µM |
| N[C@@H](CC(=O)N1CCn2c(nnc2C(F)(F)F)C1)Cc1cc(F)c(F)cc1F [sitagliptin] | – | inhibition at 500 µM [2]: ~25% |
| COc1cc(CC(=O)O)ccc1O [homovanillic acid] | significantly decreased in the presence of the dopamine metabolite homovanillate | – |
| CCOC(=O)[C@H](CCc1ccccc1)N[C@@H](C)C(=O)N1CCC[C@H]1C(=O)O [enalapril] | weak inhibition of OAT2-mediated cGMP uptake by high concentrations of sitagliptin and enalapril | – |
| COc1ccc2c(c1)c(CC(=O)O)c(C)n2C(=O)c1ccc(Cl)cc1 [indomethacin] | OAT2 transport function was abolished by indomethacin | – |
